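Exposure lasted 48 hours, with cells grown in 96-well plates and compounds tested at five concentrations. GI50 marks 50% less growth.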 Calls of active or inactive are those of the source. No stated cut-off is given here; in the data, active = GI50 up to about 1.1 µM and inactive = higher.
Experiments:
Experiment in all cases: NCI tumour cell line growth inhibition, 48 h
T47D = test system: T47D
OVCAR-5 = test system: OVCAR-5
SK-MEL-28 = test system: SK-MEL-28
NCI-H226 = test system: NCI-H226
SK-OV-3 = test system: SK-OV-3
SF-268 = test system: SF-268
SNB-75 = test system: SNB-75
MCF7 = test system: MCF7
BT-549 = test system: BT-549
MDA-MB-231 = test system: MDA-MB-231
HCT-15 = test system: HCT-15
UO-31 = test system: UO-31
SNB-19 = test system: SNB-19
CAKI-1 = test system: CAKI-1
IGROV-1 = test system: IGROV-1
OVCAR-4 = test system: OVCAR-4
SK-MEL-5 = test system: SK-MEL-5
LOX IMVI = test system: LOX IMVI
SW-620 = test system: SW-620
COLO 205 = test system: COLO 205
TK-10 = test system: TK-10
CCRF-CEM = test system: CCRF-CEM
A549 = test system: A549
NCI-H522 = test system: NCI-H522
OVCAR-3 = test system: OVCAR-3
ACHN = test system: ACHN
SF-539 = test system: SF-539
RPMI-8226 = test system: RPMI-8226
SK-MEL-2 = test system: SK-MEL-2
KM12 = test system: KM12
UACC-62 = test system: UACC-62
HCC 2998 = test system: HCC 2998
Malme-3M = test system: Malme-3M
SN12C = test system: SN12C
MOLT-4 = test system: MOLT-4
A498 = test system: A498
EKVX = test system: EKVX
SR = test system: SR
OVCAR-8 = test system: OVCAR-8
HT-29 = test system: HT-29
Hs-578T = test system: Hs-578T
UACC-257 = test system: UACC-257
MDA-MB-435 = test system: MDA-MB-435
HL-60 = test system: HL-60
NCI-H23 = test system: NCI-H23
HOP-62 = test system: HOP-62
K562 = test system: K562
U-251 = test system: U-251
RXF 393 = test system: RXF 393
M14 = test system: M14
HOP-92 = test system: HOP-92
PC-3 = test system: PC-3
NCI-H460 = test system: NCI-H460
786-0 = test system: 786-0
DU-145 = test system: DU-145
SF-295 = test system: SF-295
HCT-116 = test system: HCT-116
NCI/ADR-RES = test system: NCI/ADR-RES

With `CCCC(=O)OC[n+]1ccc(-c2c(COC(=O)NC(C)C)c(COC(=O)NC(C)C)c3n2CCC3)cc1` the GI50 (T47D) was > 100 µM (inactive), the GI50 (OVCAR-5) was > 100 µM (inactive) and the GI50 (SK-MEL-28) was > 100 µM (inactive). The GI50 (NCI-H226) was > 100 µM (inactive), the GI50 (SK-OV-3) was > 100 µM (inactive) and the GI50 (SF-268) was 65.8 µM (inactive). For the same compound, the GI50 (SNB-75) was 87.3 µM (inactive), the GI50 (MCF7) was 80.7 µM (inactive) and the GI50 (BT-549) was > 100 µM (inactive). The GI50 (MDA-MB-231) was > 100 µM (inactive), the GI50 (HCT-15) was > 100 µM and the GI50 (UO-31) was > 100 µM (inactive). The GI50 (SNB-19) was > 100 µM (inactive), the GI50 (CAKI-1) was 21.8 µM (inactive) and the GI50 (IGROV-1) was > 100 µM (inactive). The GI50 (OVCAR-4) was > 100 µM (inactive), the GI50 (SK-MEL-5) was > 100 µM (inactive) and the GI50 (LOX IMVI) was > 100 µM (inactive). The GI50 (SW-620) was > 100 µM (inactive), the GI50 (COLO 205) was > 100 µM (inactive) and the GI50 (TK-10) was > 100 µM (inactive). For the same compound, the GI50 (CCRF-CEM) was 44.6 µM (inactive), the GI50 (A549) was > 100 µM (inactive) and the GI50 (NCI-H522) was > 100 µM (inactive). The GI50 (OVCAR-3) was > 100 µM (inactive), the GI50 (ACHN) was 15.4 µM (inactive) and the GI50 (SF-539) was 28.1 µM (inactive). The GI50 (RPMI-8226) was > 100 µM (inactive), the GI50 (SK-MEL-2) was > 100 µM (inactive) and the GI50 (KM12) was > 100 µM (inactive). The GI50 (UACC-62) was 47 µM (inactive), the GI50 (HCC 2998) was > 100 µM (inactive) and the GI50 (Malme-3M) was > 100 µM (inactive). The GI50 (SN12C) was > 100 µM (inactive), the GI50 (MOLT-4) was 41.5 µM (inactive) and the GI50 (A498) was 39.7 µM (inactive). The GI50 (EKVX) was > 100 µM (inactive), the GI50 (SR) was 4.99 µM (inactive) and the GI50 (OVCAR-8) was > 100 µM (inactive). For the same compound, the GI50 (HT-29) was > 100 µM (inactive), the GI50 (Hs-578T) was > 100 µM (inactive) and the GI50 (UACC-257) was > 100 µM (inactive). For the same compound, the GI50 (MDA-MB-435) was > 100 µM (inactive), the GI50 (HL-60) was 33.3 µM (inactive) and the GI50 (NCI-H23) was > 100 µM (inactive). The GI50 (HOP-62) was 84.1 µM (inactive), the GI50 (K562) was > 100 µM (inactive) and the GI50 (U-251) was > 100 µM (inactive). For the same compound, the GI50 (RXF 393) was 34.5 µM (inactive), the GI50 (M14) was > 100 µM (inactive) and the GI50 (HOP-92) was > 100 µM (inactive). For the same compound, the GI50 (PC-3) was 92.7 µM (inactive), the GI50 (NCI-H460) was 76.4 µM (inactive) and the GI50 (786-0) was 51.9 µM (inactive). The GI50 (DU-145) was 31.2 µM (inactive), the GI50 (SF-295) was 81.7 µM (inactive) and the GI50 (HCT-116) was > 100 µM (inactive). For the same compound, the GI50 (NCI/ADR-RES) was > 100 µM (inactive).
